Assay results from PubChem BioAssay AID328 (DTP/NCI, 2004).
Values joined by “and” are separate entries in the source; they are usually repeats but may differ in a detail not shown here. Equal values may be shown once. Toxic doses and inconclusive results are not listed.

Tested on: BDF1 mice, P388 leukemia ip, median survival T/C
Assay: NCI In Vivo Anticancer Drug Screen. Data for tumor model P388 Leukemia (intraperitoneal) in B6D2F1 (BDF1) mice
Details: endpoint: median survival time, higher = longer survival
In short: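 Steps: implant the tumour, treat one group with compound and another with vehicle, record survival, then divide treated by control.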

[1] = dose: 100.0 mg/kg/injection, schedule: Q04DX003 (ip), vehicle: saline with Tween-80
[2] = dose: 200.0 mg/kg/injection, schedule: Q04DX003 (ip), vehicle: saline with Tween-80
[3] = dose: 400.0 mg/kg/injection, schedule: Q04DX003 (ip), vehicle: saline with Tween-80
[4] = dose: 50.0 mg/kg/injection, schedule: Q01DX009 (ip), vehicle: saline with Tween-80
[5] = dose: 100.0 mg/kg/injection, schedule: Q01DX009 (ip), vehicle: saline with Tween-80
[6] = dose: 200.0 mg/kg/injection, schedule: Q01DX009 (ip), vehicle: saline with Tween-80
[7] = dose: 400.0 mg/kg/injection, schedule: Q01DX009 (ip), vehicle: saline with Tween-80
[8] = dose: 25.0 mg/kg/injection, schedule: Q04DX003 (ip), vehicle: saline with Tween-80
[9] = dose: 100.0 mg/kg/injection, schedule: Q01DX009 (ip), vehicle: saline
[10] = dose: 200.0 mg/kg/injection, schedule: Q01DX009 (ip), vehicle: saline
[11] = dose: 100.0 mg/kg/injection, schedule: Q01DX001 (ip), vehicle: Klucel (hydroxypropylcellulose) (HPC)
[12] = dose: 200.0 mg/kg/injection, schedule: Q01DX001 (ip), vehicle: Klucel (hydroxypropylcellulose) (HPC)
[13] = dose: 400.0 mg/kg/injection, schedule: Q01DX001 (ip), vehicle: Klucel (hydroxypropylcellulose) (HPC)

Which results are given for `CCCNC(=O)Oc1ccc(C(=O)OCC)cc1`?
T/C [1]: 100 % of control; T/C [2]: 109 % of control; T/C [3]: 113 % of control

With `C[C@@H]1C[C@@]2(O[C@@H]2C)C(=O)O[C@@H]2CCN3CC=C(COC(=O)[C@]1(C)O)[C@H]23` as the molecule, how does the T/C (dose: 20.0 mg/kg/injection, schedule: Q01DX010 (ip), vehicle: carboxymethylcellulose (CMC)) read?
Its T/C is 110 % of control.

And the T/C (dose: 40.0 mg/kg/injection, schedule: Q01DX010 (ip), vehicle: carboxymethylcellulose (CMC))?
Its T/C is 100 % of control.

Which T/C (dose: 50.0 mg/kg/injection, schedule: Q01DX005 (ip), vehicle: saline with Tween-80) does the source give for `O=C1CN(c2ccccc2)CC(=O)N2CCCN12` here?
The T/C was 92 % of control.

What about the T/C (dose: 200.0 mg/kg/injection, schedule: Q01DX005 (ip), vehicle: saline with Tween-80) of the same molecule?
The T/C was 88 % of control.

For `CN(C)C(=S)SCC(=O)NC(CO)C(=O)O` (configuration not stated), which T/C [4] is on record?
Its T/C is 98 % of control.

And the T/C [5]?
The T/C was 98 % of control.

And the T/C [6]?
Its T/C is 89 % of control.

With `CNC(=O)OCCN(CCOC(=O)NC)C(=O)N1c2ccccc2Sc2ccccc21` as the molecule, how does the T/C (dose: 25.0 mg/kg/injection, schedule: Q01DX009 (ip), vehicle: saline with Tween-80) read?
Its T/C is 95 % of control and 107 % of control.

And the T/C [4]?
The T/C was 98 % of control.

And the T/C [5]?
Its T/C is 98 % of control and 116 % of control.

And the T/C [6]?
The T/C was 115 % of control.

For `CNC(=O)Oc1ccc2ccccc2c1`, which T/C [5] is on record?
The T/C was 111 % of control.

And the T/C [6]?
The T/C was 113 % of control.

What about the T/C [7] of the same molecule?
Its T/C is 103 % of control.

`COc1ccc(/C(=C\S(C)(=O)=O)c2cccs2)cc1` was tested. Which T/C [4] did it give?
Its T/C is 88 % of control.

What about the T/C [5] of the same molecule?
Its T/C is 91 % of control.

And the T/C [6]?
Its T/C is 105 % of control.

Which results are given for `CCCCOc1cc(C(=O)NCCN(CC)CC)c2ccccc2n1`?
T/C (dose: 6.25 mg/kg/injection, schedule: Q04DX003 (ip), vehicle: saline with Tween-80): 100 % of control; T/C (dose: 12.5 mg/kg/injection, schedule: Q04DX003 (ip), vehicle: saline with Tween-80): 109 % of control; T/C [8]: 109 % of control

How did the T/C (dose: 75.0 mg/kg/injection, schedule: Q01DX009 (ip), vehicle: Klucel (hydroxypropylcellulose) (HPC)) turn out when `Cc1cc(=O)[nH]c(N/N=C/c2ccc(O)cc2)n1` was run?
Its T/C is 104 % of control.

And the T/C (dose: 150.0 mg/kg/injection, schedule: Q01DX009 (ip), vehicle: Klucel (hydroxypropylcellulose) (HPC))?
The T/C was 109 % of control.

And the T/C (dose: 300.0 mg/kg/injection, schedule: Q01DX009 (ip), vehicle: Klucel (hydroxypropylcellulose) (HPC))?
Its T/C is 95 % of control.

What does the source list for `O=C(/C=C/C(=O)Oc1ccccc1)Oc1ccccc1`?
T/C (dose: 100.0 mg/kg/injection, schedule: Q01DX009 (ip), vehicle: Klucel (hydroxypropylcellulose) (HPC)): 90 % of control; T/C (dose: 200.0 mg/kg/injection, schedule: Q01DX009 (ip), vehicle: Klucel (hydroxypropylcellulose) (HPC)): 109 % of control; T/C (dose: 400.0 mg/kg/injection, schedule: Q01DX009 (ip), vehicle: Klucel (hydroxypropylcellulose) (HPC)): 90 % of control

With `CC(C)=CBr` as the molecule, how does the T/C (dose: 198.0 mg/kg/injection, schedule: Q01DX005 (ip), vehicle: saline) read?
Its T/C is 92 % of control.

What about the T/C (dose: 300.0 mg/kg/injection, schedule: Q01DX005 (ip), vehicle: saline) of the same molecule?
Its T/C is 100 % of control.

Which T/C (dose: 6.25 mg/kg/injection, schedule: Q01DX009 (ip), vehicle: saline) does the source give for `CCCCCCOc1cccc(OCCCC[N+]2(CC)CCCCC2)c1` here?
Its T/C is 108 % of control.

Which results are given for `CN1CCC(OC(N)=O)CC1`?
T/C [9]: 109 % of control; T/C (dose: 100.0 mg/kg/injection, schedule: Q04DX003 (ip), vehicle: alcohol): 100 % of control; T/C (dose: 100.0 mg/kg/injection, schedule: Q04DX003 (ip), vehicle: saline sonified): 100 % of control; T/C (dose: 132.0 mg/kg/injection, schedule: Q01DX008 (ip), vehicle: saline): 95 % of control; T/C (dose: 132.0 mg/kg/injection, schedule: Q01DX009 (ip), vehicle: saline): 113 % of control; T/C (dose: 200.0 mg/kg/injection, schedule: Q01DX008 (ip), vehicle: saline): 104 % of control; T/C [10]: 109 % of control; T/C (dose: 200.0 mg/kg/injection, schedule: Q04DX003 (ip), vehicle: alcohol): 100 % of control; T/C (dose: 200.0 mg/kg/injection, schedule: Q04DX003 (ip), vehicle: saline sonified): 104 % of control; T/C (dose: 300.0 mg/kg/injection, schedule: Q01DX008 (ip), vehicle: saline): 104 % of control; T/C (dose: 300.0 mg/kg/injection, schedule: Q01DX009 (ip), vehicle: saline): 113 % of control; T/C (dose: 400.0 mg/kg/injection, schedule: Q01DX009 (ip), vehicle: saline): 95 % of control; T/C (dose: 400.0 mg/kg/injection, schedule: Q04DX003 (ip), vehicle: alcohol): 118 % of control; T/C (dose: 400.0 mg/kg/injection, schedule: Q04DX003 (ip), vehicle: saline sonified): 100 % of control

For `CCCCOc1ccc(NC(N)=Nc2ccc(Cl)cc2)cc1`, which T/C (dose: 3.12 mg/kg/injection, schedule: Q01DX010 (ip), vehicle: carboxymethylcellulose (CMC)) is on record?
The T/C was 95 % of control.

What about the T/C (dose: 12.5 mg/kg/injection, schedule: Q01DX010 (ip), vehicle: carboxymethylcellulose (CMC)) of the same molecule?
The T/C was 90 % of control.

And the T/C (dose: 25.0 mg/kg/injection, schedule: Q01DX010 (ip), vehicle: carboxymethylcellulose (CMC))?
Its T/C is 95 % of control.

What about the T/C [8] of the same molecule?
The T/C was 109 % of control.

And the T/C (dose: 50.0 mg/kg/injection, schedule: Q01DX010 (ip), vehicle: carboxymethylcellulose (CMC))?
Its T/C is 95 % of control.

And the T/C (dose: 50.0 mg/kg/injection, schedule: Q04DX003 (ip), vehicle: saline with Tween-80)?
Its T/C is 90 % of control.

Which results are given for `CC(=O)CC(=O)c1ccccc1`?
T/C [11]: 112 % of control; T/C (dose: 100.0 mg/kg/injection, schedule: Q04DX003 (ip), vehicle: Klucel (hydroxypropylcellulose) (HPC)): 108 % of control; T/C [12]: 95 % of control; T/C (dose: 200.0 mg/kg/injection, schedule: Q04DX003 (ip), vehicle: Klucel (hydroxypropylcellulose) (HPC)): 108 % of control; T/C [13]: 91 % of control; T/C (dose: 400.0 mg/kg/injection, schedule: Q04DX003 (ip), vehicle: Klucel (hydroxypropylcellulose) (HPC)): 112 % of control

`CC(=O)OCC(CCn1ccc(=O)[nH]c1=O)COC(C)=O` was tested. Which T/C [5] did it give?
The T/C was 90 % of control.

And the T/C [1]?
The T/C was 98 % of control.

What about the T/C [6] of the same molecule?
Its T/C is 100 % of control.

What about the T/C [2] of the same molecule?
The T/C was 98 % of control.

What about the T/C [7] of the same molecule?
Its T/C is 90 % of control.

What about the T/C [3] of the same molecule?
The T/C was 100 % of control.

What does the source list for `ClCCN(CCCN(CCCl)c1ccccc1)c1ccccc1`?
T/C (dose: 100.0 mg/kg/injection, schedule: Q01DX001 (ip), vehicle: saline + alcohol): 118 % of control; T/C (dose: 200.0 mg/kg/injection, schedule: Q01DX001 (ip), vehicle: saline with Tween-80): 156 % of control; T/C (dose: 400.0 mg/kg/injection, schedule: Q01DX001 (ip), vehicle: saline + alcohol): 151 % of control; T/C (dose: 400.0 mg/kg/injection, schedule: Q01DX001 (ip), vehicle: saline with Tween-80): 166 % of control; T/C (dose: 800.0 mg/kg/injection, schedule: Q01DX001 (ip), vehicle: saline with Tween-80): 205 % of control

How did the T/C (dose: 50.0 mg/kg/injection, schedule: Q01DX009 (ip), vehicle: Klucel (hydroxypropylcellulose) (HPC)) turn out when `Cc1ccc(C2NC(=O)c3ccccc3N2)s1` (configuration not stated) was run?
The T/C was 107 % of control and 113 % of control.

How did the T/C (dose: 100.0 mg/kg/injection, schedule: Q01DX009 (ip), vehicle: other) turn out when `Cc1ccc(S(=O)(=O)N(C)SCl)cc1` (tested in a mixture with another compound) was run?
The T/C was 121 % of control.

`O=S(=O)(NCCO)c1ccc(Cl)cc1` was tested. Which T/C [11] did it give?
Its T/C is 100 % of control.

And the T/C [12]?
The T/C was 100 % of control.

What about the T/C [13] of the same molecule?
Its T/C is 100 % of control.

What does the source list for `C1CCC(=[N+]2CCCC2)CC1`?
T/C (dose: 50.0 mg/kg/injection, schedule: Q01DX009 (ip), vehicle: saline): 100 % of control; T/C [9]: 100 % of control; T/C (dose: 100.0 mg/kg/injection, schedule: Q04DX003 (ip), vehicle: saline): 109 % of control; T/C [10]: 112 % of control; T/C (dose: 200.0 mg/kg/injection, schedule: Q04DX003 (ip), vehicle: saline): 100 % of control

Which T/C (dose: 12.5 mg/kg/injection, schedule: Q01DX009 (ip), vehicle: water) does the source give for `CCCCCCCCCCCCCCCCCC[N+]1([O-])CCCC1` here?
The T/C was 100 % of control.

What about the T/C (dose: 25.0 mg/kg/injection, schedule: Q01DX009 (ip), vehicle: water) of the same molecule?
Its T/C is 93 % of control.

What about the T/C (dose: 50.0 mg/kg/injection, schedule: Q01DX009 (ip), vehicle: water) of the same molecule?
The T/C was 93 % of control.
